Results: PMC6948153 (ACS chemical biology, 2019)
“Also recorded” adds a separate entry of the source. Where two headings read alike, the source gives them in different places.

Tests used:
RhlI [1] = molecular target: T1, RhlI (Pseudomonas aeruginosa, UniProt P54291); experiment: RhlI enzymatic assay; format: biochemical; details: for effect on RhlI activity (inhibition / activation): initial rate with increasing concentrations of compound
RhlI [2] = molecular target: T1, RhlI; details: N-butyryl L-homoserine lactone even at 1 mM; ref 21 (Parsek et al.); cited from earlier work
tag-free RhlI = tag-free RhlI (Pseudomonas aeruginosa, UniProt P54291); experiment: Km and IC50 with tag-free RhlI; format: biochemical
tag-free RhlI, sequence (P54291 whole entry): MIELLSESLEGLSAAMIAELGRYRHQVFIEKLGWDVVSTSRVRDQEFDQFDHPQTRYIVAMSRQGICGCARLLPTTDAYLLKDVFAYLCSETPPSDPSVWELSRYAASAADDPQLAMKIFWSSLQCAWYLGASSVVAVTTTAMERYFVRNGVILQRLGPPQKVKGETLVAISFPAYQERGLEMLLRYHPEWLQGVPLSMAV

RhlI [3] = molecular target: T1, RhlI; experiment: Inhibition of RhlI by inert alkyl-ACP / alkyl-CoA substrate analogs; format: biochemical; details: for effect of preincubation of RhlI with inhibitor on % inhibition or IC50: inhibition neither slow-binding nor time-dependent; for inhibition mode: substrate-velocity measurements at different alkyl-ACP concentrations
RhlI [4] = molecular target: T1, RhlI; experiment: Substrate kinetics of acyl-ACPs with RhlI; format: biochemical; details: acyl-ACP substrate with RhlI
[5] = inert substrate analog with RhlI

T1 sequence (P54291 whole entry): as above

Molecule: N[C@H]1CCOC1=O [compound 71, L-HSL]
- effect on RhlI activity (inhibition / activation) (RhlI [1]): None of these compounds or combinations had any effect on RhlI activity

Molecule: CCCC(=O)N[C@H]1CCOC1=O [compound 1, N-butyryl-L-homoserine lactone]
- inhibition of RhlI (RhlI [2]): no inhibition
- effect on RhlI activity (inhibition / activation) (RhlI [1]): did not inhibit

Molecule: CCCC(=O)CC(=O)N[C@@H]1CCOC1=O [compound 34, 3-oxoC6-D-HSL]
- EC50 (RhlI [1]): 224 ± 55 µM

Molecule: N[C@H]1CCSC1=O [compound 73, L-HCTL]
- effect on RhlI activity (inhibition / activation) (RhlI [1]): None of these compounds or combinations had any effect on RhlI activity

Molecule: butyl-ACP [compound 85]
- IC50 with untagged RhlI compared with MBP-tagged enzyme (tag-free RhlI): almost identical
- IC50 (RhlI [3]; [5]): 9.9 ± 4 µM
- Ki (RhlI [3]; [5]): 15.9 ± 0.9 µM
- effect of preincubation of RhlI with inhibitor on % inhibition or IC50 (RhlI [3]): did not significantly alter
- inhibition mode (RhlI [3]): noncompetitive

Molecule: butyryl-ACP [compound 80]
- Km with untagged RhlI compared with MBP-tagged enzyme (tag-free RhlI): almost identical
- Km (RhlI [4]): 7.3 ± 2.1 µM
- kcat (RhlI [4]): 0.0433 ± 0.005 s⁻¹
- Km (RhlI [4]; listed as C4-ACP): 7 µM

Molecule: octanoyl-ACP [compound 82]
- Km with untagged RhlI compared with MBP-tagged enzyme (tag-free RhlI): almost identical
- Km (RhlI [4]): 0.4 ± 0.06 µM
- kcat (RhlI [4]): 0.01 ± 0.00033 s⁻¹

Molecule: CCCC(=O)N[C@@H]1CCOC1=O [compound 5, C4-D-HSL]
- IC50 (RhlI [1]): 688 ± 91 µM
- effect on RhlI activity (inhibition / activation) (RhlI [1]): decreased the rate

Molecule: CCCCCC(=O)CC(=O)N[C@@H]1CCSC1=O [compound 62, 3-oxoC8-D-HCTL]
- EC50 (RhlI [1]): 855 ± 74 µM
- effect on RhlI activity (inhibition / activation) (RhlI [1]): activated

Molecule: O=C(CCCc1ccccc1)N[C@@H]1CCOC1=O [compound 31, 4-phenylbutanoyl-D-HSL]
- IC50 (RhlI [1]): 20 ± 10 µM

Molecule: CCCCSCCNC(=O)CCNC(=O)[C@H](O)C(C)(C)COP(=O)(O)OP(=O)(O)OC[C@H]1O[C@@H](n2cnc3c(N)ncnc32)[C@H](O)[C@@H]1OP(=O)(O)O [compound 89, butyl-CoA]
- inhibition of RhlI (RhlI [3]; up to 1 mM): not inhibiting

Molecule: CCCCCCCCSCCNC(=O)CCNC(=O)[C@H](O)C(C)(C)COP(=O)(O)OP(=O)(O)OC[C@H]1O[C@@H](n2cnc3c(N)ncnc32)[C@H](O)[C@@H]1OP(=O)(O)O [compound 91, octyl-CoA]
- IC50 (RhlI [3]): 5.1 ± 0.8 µM

Molecule: hexanoyl-ACP [compound 81]
- Km (RhlI [4]): 1.2 ± 0.2 µM
- kcat (RhlI [4]): 0.0143 ± 0.00033 s⁻¹

Molecule: CCCCCCCCCCCC(=O)N[C@@H]1CCSC1=O [compound 60, C12-D-homocysteine thiolactone]
- IC50 (RhlI [1]): 11 ± 1 µM
- fold lower IC50 than L-thiolactone counterpart compound 46 (RhlI [1]; IC50 of 60 versus IC50 of 46): about 34 fold

Molecule: N[C@@H]1CCOC1=O [compound 72, D-HSL]
- effect on RhlI activity (inhibition / activation) (RhlI [1]): None of these compounds or combinations had any effect on RhlI activity

Molecule: CCCCCC(=O)O [compound 76, hexanoic acid]
- effect on RhlI activity (inhibition / activation) (RhlI [1]): None of these compounds or combinations had any effect on RhlI activity

Molecule: octyl-ACP [compound 87]
- IC50 with untagged RhlI compared with MBP-tagged enzyme (tag-free RhlI): almost identical
- IC50 (RhlI [3]; [5]): 0.06 ± 0.02 µM
- Ki (RhlI [3]; [5]): 6.5 ± 0.7 µM
- effect of preincubation of RhlI with inhibitor on % inhibition or IC50 (RhlI [3]): did not significantly alter
- inhibition mode (RhlI [3]): noncompetitive

Molecule: CCCCCCCC(=O)CC(=O)N[C@@H]1CCSC1=O [compound 63, 3-oxoC10-D-HCTL]
- EC50 (RhlI [1]): 57 ± 23 µM
- effect on RhlI activity (inhibition / activation) (RhlI [1]): activated

Molecule: CCCCCCCCCC(=O)O [compound 78, decanoic acid]
- effect on RhlI activity (inhibition / activation) (RhlI [1]): None of these compounds or combinations had any effect on RhlI activity

Molecule: CCCCCCCCCCCC(=O)N[C@H]1CCSC1=O [compound 46, C12-L-HCTL]
- IC50 (RhlI [1]): 387 ± 89 µM

Molecule: CCCCCCCCCC(=O)CC(=O)N[C@@H]1CCSC1=O [compound 64, 3-oxoC12-D-HCTL]
- IC50 (RhlI [1]): 127 ± 70 µM
- effect on RhlI activity (inhibition / activation) (RhlI [1]): inhibited

Molecule: CCCCCC(=O)CC(=O)N[C@@H]1CCOC1=O [compound 35, 3-oxoC8-D-HSL]
- IC50 (RhlI [1]): 282 ± 34 µM

Molecule: CCCC(=O)O [compound 75, butyric acid]
- effect on RhlI activity (inhibition / activation) (RhlI [1]): None of these compounds or combinations had any effect on RhlI activity

Molecule: CCCC(=O)N[C@H]1CCSC1=O [compound 8, C4-L-HCTL]
- effect on RhlI activity (inhibition / activation) (RhlI [1]): failed to inhibit; also recorded: did not inhibit

Molecule: CCCCCCSCCNC(=O)CCNC(=O)[C@H](O)C(C)(C)COP(=O)(O)OP(=O)(O)OC[C@H]1O[C@@H](n2cnc3c(N)ncnc32)[C@H](O)[C@@H]1OP(=O)(O)O [compound 90, hexyl-CoA]
- IC50 (RhlI [3]): 70 ± 10 µM

Molecule: dodecanoyl-ACP [compound 84]
- Km (RhlI [4]): 0.26 ± 0.03 µM
- kcat (RhlI [4]): 0.01 ± 0.00017 s⁻¹
- Km (RhlI [4]; listed as C12-ACP): ~0.2 µM

Molecule: CCCCCCCCCCCC(=O)O [compound 79, dodecanoic acid]
- effect on RhlI activity (inhibition / activation) (RhlI [1]): None of these compounds or combinations had any effect on RhlI activity

Molecule: holo-ACP: holo acyl carrier protein, product of the RhlI reaction
- inhibition of RhlI (RhlI [2]): weak inhibitors

Molecule: hexyl-ACP [compound 86]
- IC50 (RhlI [3]; [5]): 0.7 ± 0.4 µM
- Ki (RhlI [3]; [5]): 10.6 ± 1.1 µM
- inhibition mode (RhlI [3]): noncompetitive

Molecule: decyl-ACP [compound 88]
- IC50 (RhlI [3]; [5]): 0.1 ± 0.04 µM
- Ki (RhlI [3]; [5]): 4.8 ± 0.3 µM
- inhibition mode (RhlI [3]): noncompetitive

Molecule: CSC[C@H]1O[C@@H](n2cnc3c(N)ncnc32)[C@H](O)[C@@H]1O [MTA]
- inhibition of RhlI (RhlI [2]): weak inhibitors

Molecule: decanoyl-ACP [compound 83]
- Km (RhlI [4]): 0.14 ± 0.04 µM
- kcat (RhlI [4]): 0.00633 ± 0.00017 s⁻¹

Molecule: CCCC(=O)CC(=O)N[C@@H]1CCSC1=O [compound 61, 3-oxoC6-D-HCTL]
- EC50 (RhlI [1]): 1510 ± 110 µM
- effect on RhlI activity (inhibition / activation) (RhlI [1]): activated

Molecule: N[C@@H]1CCSC1=O [compound 74, D-HCTL]
- effect on RhlI activity (inhibition / activation) (RhlI [1]): None of these compounds or combinations had any effect on RhlI activity

Molecule: CCCCCCCCCC(=O)CC(=O)N[C@H]1CCSC1=O [compound 55, 3-oxoC12-L-HCTL]
- IC50 (RhlI [1]): 621 ± 50 µM
